From patent US8987502B2, “Oleanolic acid amidate derivatives, preparation methods and uses thereof” (Hangzhou Bensheng Pharmaceutical Co., Ltd., priority 2011, dated 2015)
Converted amounts (≈) assume the structure as drawn.

Tests used:
Hep G2 = test: MTT solid tumor cell proliferation inhibition, Hep G2; format: cell-based; details: Homo sapiens, HepG2; for inhibition at 16 µg/mL: Hep G2, 16 μg/mL compound, 72 h, read-out: IR (inhibition rate); for IC50: Hep G2, 72 h, MTT
Procedure: (§1) Human solid tumor cell lines: Hep-2 (laryngeal carcinoma), A549 (human lung cancer), CaES-17 (esophageal cancer cell), PC-3 (prostate cancer), CNE (nasopharyngeal carcinoma cell), and SK-OV-3 (ovarian cancer cell), all of which are purchased from China Center For Type Culture Collection; RKO (human colon adenocarcinoma cell), MGC 803 (human gastric cancer cell), MG63 (osteosarcoma) and U87 MG (malignant glioma cell), all of which are purchased from Fuxiang Bio-tech Co. Ltd., Shanghai, China; PANC-1 (pancreatic cancer), Hep G2 (human liver cancer cell), Becap37 (human breast cancer cell), and Hela (human cervical cancer cell), all of which are donated by Cancer Research Institute of Zhejiang University, China.
(§2) Obtaining 4000 well-growing human solid tumor cells and inoculating them into wells of a 96-well cell culture plate. The culture medium is DMEM High Glucose cell culture medium containing 10% fetal bovine serum. The plate is placed in a carbon dioxide cell incubator (5% CO2) at 37° C. for 24 hours for incubation. After being added with the amidated oleanolic acid derivatives of different concentrations and mixed uniformly, the plate is placed in a carbon dioxide cell incubator (5% CO2) at 37° C. for 72 hours for incubation. Then the relative number of the living cells is determined by the MTT method. In this experiment, the cell proliferation inhibition rate in control group (not treated with any compound) is set as 0%.

Becap37 = test: MTT solid tumor cell proliferation inhibition, Becap37; format: cell-based; details: Homo sapiens; for inhibition at 16 µg/mL: Becap37, 16 μg/mL compound, 72 h, read-out: IR (inhibition rate); for IC50: Becap37, 72 h, MTT
Procedure: as §1, §2

PANC-1 = test: MTT solid tumor cell proliferation inhibition, PANC-1; format: cell-based, human; details: Homo sapiens; for inhibition at 16 µg/mL: PANC-1, 16 μg/mL compound, 72 h, read-out: IR (inhibition rate); for IC50: PANC-1, 72 h, MTT
Procedure: as §1, §2

NB4 = test: MTT leukemia cell proliferation inhibition, NB4; format: cell-based; details: Homo sapiens, NB-4; for inhibition at 16 µg/mL: NB4, 16 μg/mL compound, 72 h, read-out: IR (inhibition rate); for IC50: NB4, 72 h, MTT
Text: (§3) Leukemia cell lines: leukemia cell lines: K562/adr (drug-resistant, chronic myeloid leukemia, CML), NB4 (acute promyelocytic leukemia, AML), Kasumi-1 (acute myeloid leukemia M2 type, AML-M2), Jurkat (acute lymphoblastic leukemia, ALL), all of which are donated by Cancer Research Institute of Zhejiang University, China; and H9 (acute lymphoblastic leukemia, ALL), which is purchased from China Center for Type Culture Collection (CCTCC).
(§4) Reagents: The standard sample of oleanolic acid (OA) is purchased from Hua Kang Pharmaceutical Raw Material Factory, Shifang City, Sichuan, China; and the amidated oleanolic acid derivatives are prepared according to the present invention.
(§5) Obtaining 6000 well-growing leukemia cells and inoculating them into wells of a 96-well cell culture plate. The culture medium is the 1640 cell culture medium containing 10% fetal bovine serum. After adding the amidated oleanolic acid derivatives of different concentrations and mixing uniformly, placing the plate in a carbon dioxide cell incubator (5% CO2) at 37° C. and incubated for 72 hours. Then the relative number of viable cells is determined by the MTT method. In this experiment, the cell proliferation inhibition rate in control group (not treated with any compound) is set as 0%.

Hep-2 = test: MTT solid tumor cell proliferation inhibition, Hep-2; format: cell-based, human; details: for inhibition at 16 µg/mL / IC50: Homo sapiens; for inhibition at 16 µg/mL: Hep-2, 16 μg/mL compound, 72 h, read-out: IR (inhibition rate); for IC50: Hep-2, 72 h, MTT
Procedure: as §1, §2

PC-3 = test: MTT solid tumor cell proliferation inhibition, PC-3; format: cell-based, human; details: Homo sapiens; for inhibition at 16 µg/mL: PC-3, 16 μg/mL compound, 72 h, read-out: IR (inhibition rate); for IC50: PC-3, 72 h, MTT
Procedure: as §1, §2

CaES-17 = test: MTT solid tumor cell proliferation inhibition, CaES-17; format: cell-based, human; details: for inhibition at 16 µg/mL / IC50: Homo sapiens, CaEs17; for inhibition at 16 µg/mL: CaES-17, 16 μg/mL compound, 72 h, read-out: IR (inhibition rate); for IC50: CaES-17, 72 h, MTT
Procedure: as §1, §2

RKO = test: MTT solid tumor cell proliferation inhibition, RKO; format: cell-based; details: Homo sapiens, 72 h; for inhibition at 16 µg/mL: 16 μg/mL compound, read-out: IR (inhibition rate); for IC50: MTT
Procedure: as §1, §2

MG 63 = test: MTT solid tumor cell proliferation inhibition, MG 63; format: cell-based, human; details: for IC50: Homo sapiens, MG 63, 72 h, MTT; for IR (inhibition rate): MG 63, 16 μg/mL compound, 72 h
Procedure: as §1, §2

K562/adr = test: MTT leukemia cell proliferation inhibition, K562/adr; format: cell-based; details: Homo sapiens, 72 h; for inhibition at 16 µg/mL: 16 μg/mL compound, read-out: IR (inhibition rate); for IC50: MTT
Text: as §3, §4, §5

H9 = test: MTT leukemia cell proliferation inhibition, H9; format: cell-based, human; details: Homo sapiens; for inhibition at 16 µg/mL: H9, 16 μg/mL compound, 72 h, read-out: IR (inhibition rate); for IC50: H9, 72 h, MTT
Text: as §3, §4, §5

Kasumi-1 = test: MTT leukemia cell proliferation inhibition, Kasumi-1; format: cell-based; details: Homo sapiens; for inhibition at 16 µg/mL: Kasumi-1, 16 μg/mL compound, 72 h, read-out: IR (inhibition rate); for IC50: Kasumi-1, 72 h, MTT
Text: as §3, §4, §5

MGC803 = test: MTT solid tumor cell proliferation inhibition, MGC803; format: cell-based, human; details: Homo sapiens, MGC-803; for inhibition at 16 µg/mL: MGC803, 16 μg/mL compound, 72 h, read-out: IR (inhibition rate); for IC50: MGC803, 72 h, MTT
Procedure: as §1, §2

CNE = test: MTT solid tumor cell proliferation inhibition, CNE; format: cell-based, human; details: Homo sapiens, CNE, 72 h; for inhibition at 16 µg/mL: 16 μg/mL compound, read-out: IR (inhibition rate); for IC50: MTT
Procedure: as §1, §2

SK-OV-3 = test: MTT solid tumor cell proliferation inhibition, SK-OV-3; format: cell-based, human; details: Homo sapiens; for inhibition at 16 µg/mL: SK-OV-3, 16 μg/mL compound, 72 h, read-out: IR (inhibition rate); for IC50: SK-OV-3, 72 h, MTT
Procedure: as §1, §2

A549 = test: MTT solid tumor cell proliferation inhibition, A549; format: cell-based, human; details: for inhibition at 16 µg/mL / IC50: Homo sapiens; for inhibition at 16 µg/mL: A549, 16 μg/mL compound, 72 h, read-out: IR (inhibition rate); for IC50: A549, 72 h, MTT
Procedure: as §1, §2

Hela = test: MTT solid tumor cell proliferation inhibition, Hela; format: cell-based, human; details: Homo sapiens, Hela, 72 h; for inhibition at 16 µg/mL: 16 μg/mL compound, read-out: IR (inhibition rate); for IC50: MTT
Procedure: as §1, §2

Jurkat = test: MTT leukemia cell proliferation inhibition, Jurkat; format: cell-based; details: Homo sapiens, 72 h; for inhibition at 16 µg/mL: 16 μg/mL compound, read-out: IR (inhibition rate); for IC50: MTT
Text: as §3, §4, §5

U87 MG = test: MTT solid tumor cell proliferation inhibition, U87 MG; format: cell-based, human; details: for inhibition at 16 µg/mL / IC50: Homo sapiens, U-87 MG, U87 MG, 72 h; for inhibition at 16 µg/mL: 16 μg/mL compound, read-out: IR (inhibition rate); for IC50: MTT
Procedure: as §1, §2

RPMI8226 = test: MTT multiple myeloma cell proliferation inhibition, RPMI8226; format: cell-based; details: Homo sapiens, RPMI-8226; for inhibition at 16 µg/mL: RPMI8226, 16 μg/mL compound, 72 h, read-out: IR (inhibition rate); for IC50: RPMI8226, 72 h, MTT
Procedure: Multiple myeloma cell lines: RPMI8226 (multiple myeloma), purchased from Fuxiang Bio-tech Co. Ltd., Shanghai, China.
as §5

CC1(C)CC[C@]2(NC(=O)c3cccs3)CC[C@]3(C)C(=CC[C@@H]4[C@@]5(C)CC[C@H](O)C(C)(C)[C@@H]5CC[C@]43C)[C@@H]2C1 [BS-OA-098]
inhibition at 16 µg/mL (Hep G2): 28.4%
IC50 (Hep G2): > 16 µg/mL
inhibition at 16 µg/mL (Becap37): 28.6%
IC50 (Becap37): > 16 µg/mL
inhibition at 16 µg/mL (PANC-1): 34.7%
IC50 (PANC-1): > 16 µg/mL
inhibition at 16 µg/mL (NB4): 96.3%
IC50 (NB4): 8.22 µg/mL (≈ 15.3 µM)
inhibition at 16 µg/mL (Hep-2): 19.6%
IC50 (Hep-2): > 16 µg/mL
inhibition at 16 µg/mL (PC-3): 45.1%
IC50 (PC-3): 17.4 µg/mL (≈ 32.4 µM)
inhibition at 16 µg/mL (CaES-17): 39.9%
IC50 (CaES-17): > 16 µg/mL
inhibition at 16 µg/mL (RKO): 27%
IC50 (RKO): > 16 µg/mL
IC50 (MG 63): > 16 µg/mL
IR (inhibition rate) (MG 63): 20.9%
inhibition at 16 µg/mL (K562/adr): 81.9%
IC50 (K562/adr): 7.83 µg/mL (≈ 14.6 µM)
inhibition at 16 µg/mL (H9): 62.4%
IC50 (H9): 12.5 µg/mL (≈ 23.2 µM)
inhibition at 16 µg/mL (Kasumi-1): 35.7%
IC50 (Kasumi-1): > 16 µg/mL
inhibition at 16 µg/mL (MGC803): 46.3%
IC50 (MGC803): 16 µg/mL (≈ 29.7 µM)
inhibition at 16 µg/mL (CNE): 35.8%
IC50 (CNE): > 16 µg/mL
inhibition at 16 µg/mL (SK-OV-3): 53.5%
IC50 (SK-OV-3): 14.6 µg/mL (≈ 27.2 µM)
inhibition at 16 µg/mL (A549): 24.3%
IC50 (A549): > 16 µg/mL
inhibition at 16 µg/mL (Hela): 63.1%
IC50 (Hela): 14.2 µg/mL (≈ 26.3 µM)
inhibition at 16 µg/mL (Jurkat): 20.1%
IC50 (Jurkat): > 16 µg/mL
inhibition at 16 µg/mL (U87 MG): 29.8%
IC50 (U87 MG): > 16 µg/mL
inhibition at 16 µg/mL (RPMI8226): 97.6%
IC50 (RPMI8226): 6.44 µg/mL (≈ 12 µM)

CC1(C)CC[C@]2(NC(=O)c3ccco3)CC[C@]3(C)C(=CC[C@@H]4[C@@]5(C)CC[C@H](O)C(C)(C)[C@@H]5CC[C@]43C)[C@@H]2C1 [BS-OA-099]
inhibition at 16 µg/mL (Hep G2): 25.3%
IC50 (Hep G2): > 16 µg/mL
inhibition at 16 µg/mL (Becap37): 35.1%
IC50 (Becap37): > 16 µg/mL
inhibition at 16 µg/mL (PANC-1): 34.3%
IC50 (PANC-1): > 16 µg/mL
inhibition at 16 µg/mL (NB4): 100%
IC50 (NB4): 9.17 µg/mL (≈ 17.6 µM)
improvement of cell inhibition rate as compared with oleanolic acid (Hep-2; Hep-2 cells): more than 3 fold
inhibition at 16 µg/mL (Hep-2): 37.3%
IC50 (Hep-2): > 16 µg/mL
inhibition at 16 µg/mL (PC-3): 47.2%
IC50 (PC-3): 19.5 µg/mL (≈ 37.4 µM)
improvement of cell inhibition rate as compared with oleanolic acid (CaES-17; CaES-17 cells): more than 2 fold
inhibition at 16 µg/mL (CaES-17): 66.6%
IC50 (CaES-17): 12.4 µg/mL (≈ 23.8 µM)
inhibition at 16 µg/mL (RKO): 63.1%
IC50 (RKO): 14.3 µg/mL (≈ 27.4 µM)
IC50 (MG 63): 15.1 µg/mL (≈ 29 µM)
IR (inhibition rate) (MG 63): 58.9%
inhibition at 16 µg/mL (K562/adr): 97.1%
IC50 (K562/adr): 5.26 µg/mL (≈ 10.1 µM)
inhibition at 16 µg/mL (H9): 59.8%
IC50 (H9): 14 µg/mL (≈ 26.8 µM)
inhibition at 16 µg/mL (Kasumi-1): 69.1%
IC50 (Kasumi-1): 13.1 µg/mL (≈ 25.1 µM)
inhibition at 16 µg/mL (MGC803): 50%
IC50 (MGC803): 16 µg/mL (≈ 30.7 µM)
inhibition at 16 µg/mL (CNE): 42.4%
IC50 (CNE): > 16 µg/mL
inhibition at 16 µg/mL (SK-OV-3): 43.2%
IC50 (SK-OV-3): > 16 µg/mL
improvement of cell inhibition rate as compared with oleanolic acid (A549; A549 cells): more than 4 fold
inhibition at 16 µg/mL (A549): 75%
IC50 (A549): 15 µg/mL (≈ 28.7 µM)
inhibition at 16 µg/mL (Hela): 72.9%
IC50 (Hela): 12.6 µg/mL (≈ 24.1 µM)
inhibition at 16 µg/mL (Jurkat): 63.6%
IC50 (Jurkat): 14.5 µg/mL (≈ 27.8 µM)
inhibition at 16 µg/mL (U87 MG): 47.9%
IC50 (U87 MG): 16 µg/mL (≈ 30.7 µM)
improvement of cell inhibition rate as compared with oleanolic acid (U87 MG; U87 MG cells): more than 2 fold
inhibition at 16 µg/mL (RPMI8226): 98.9%
IC50 (RPMI8226): 5.79 µg/mL (≈ 11.1 µM)
